Patent US20170351014A1, “NEAR-INFRARED ABSORPTION COMPOSITION, CURED FILM, NEAR-INFRARED ABSORPTION FILTER, SOLID-STATE IMAGING DEVICE, AND INFRARED SENSOR” (FUJIFILM Corporation, priority 2015, published 2017)

Assays:
Type in all cases: physicochemical
[1] = Near-infrared shieldability evaluation of cured film; settings: cured film 1.0 μm, Resin 1, transmittance at 785 nm
Protocol: (§1) A near-infrared absorption composition was prepared by mixing according to the following composition. The solid content of the composition was 31 mass %, and the content of the near-infrared absorption substance with respect to the total solid content of the composition was 7.5 mass %.
(§2) Each composition was applied to a glass substrate (1737 manufactured by Corning Inc.) using a spin coater such that a film thickness after drying was 1.0 μm, and a heating treatment (pre-baking) was performed thereon for 120 seconds using a hot plate at 100° C.
(§3) Next, entire surface exposure was performed at 500 mJ/cm2 using an i-ray stepper exposure device FPA-3000i5+(manufactured by Canon Inc.). Next, paddle development was performed for 60 seconds at 23° C. using a developing machine (CD-2060, manufactured by FUJIFILM Electronics Materials Co., Ltd.), and a rinsing treatment was performed with pure water. Then, spray drying was performed thereon. Using a hot plate at 200° C., a heating treatment (post-baking) was performed for 300 seconds to obtain a cured film.
The transmittance of each cured film at the maximum absorption wavelength was measured using a spectrophotometer U-4100 (manufactured by Hitachi High-Technologies Corporation). The near-infrared shieldability was evaluated based on the following standards.
A: Transmittance at 785 nm≦10%
D: 40%<Transmittance at 785 nm

[2] = Maximum absorption wavelength and absorbance ratio of cured film; settings: cured film 1.0 μm, Resin 1
Protocol: (§4) A maximum absorption wavelength of each film and an absorbance ratio as a value obtained by dividing an absorbance at a wavelength of 555 nm by an absorbance at the maximum absorption wavelength were measured using a spectrophotometer U-4100 (manufactured by Hitachi High-Technologies Corporation).
as §1, §2, §3

[3] = Visible transparency evaluation of cured film; settings: cured film 1.0 μm, Resin 1, minimum transmittance at 500 to 600 nm
Protocol: as §1, §2, §3
The transmittance of each cured film at a wavelength of 500 to 600 nm was measured using a spectrophotometer U-4100 (manufactured by Hitachi High-Technologies Corporation). The visible transparency was evaluated based on the following standards.
A: 80% 5 Minimum value of transmittance at wavelength of 500 to 600 nm
B: 70%: Minimum value of transmittance at wavelength of 500 to 600 nm<80%
C: 60%: Minimum value of transmittance at wavelength of 500 to 600 nm<70%
D: Minimum value of transmittance at wavelength of 500 to 600 nm<60%

[4] = Maximum absorption wavelength and absorbance ratio of film formed from near-infrared absorption composition; settings: film on glass
Protocol: A near-infrared absorption composition was prepared by mixing according to the following composition.
Each composition was applied to a glass substrate (1737 manufactured by Corning Inc.) using a spin coater, and a heating treatment was performed thereon for 120 seconds using a hot plate at 120° C.
as §4

[5] = Solubility of compound to propylene glycol monomethyl ether acetate (PGMEA); settings: PGMEA at 25° C.
Protocol: The solubility of each compound to propylene glycol monomethyl ether acetate (PGMEA) at 25° C. was evaluated based on the following standards.
A: The solubility of the compound to PGMEA at 25° C. is 2 mass % or greater.

[6] = Resin A (benzyl methacrylate/methyl methacrylate copolymer), 120° C. 120 seconds

Near-Infrared Shieldability [1] | Absorbance Ratio (555 nm/λmax) [2] | Maximum Absorption Wavelength [2] [nm] | Absorbance Ratio (555 nm/λmax) ([4]; Resin A) | Maximum Absorption Wavelength [4, 6] [nm] | Solubility (in words) [5] | Absorbance Ratio (555 nm/λmax) ([4]; Resin B (polycaprolactone)) | Maximum Absorption Wavelength ([4]; Resin B (polycaprolactone)) [nm] | Compound | Visible Transparency [3] | Solubility [5]
B (10%<Transmittance at 785 nm≦25%) | 0.10 | 762 | 0.10 | 763 | excellent solubility |  |  | CCCCCCCCOc1ccc(-c2c3/c(=C(\C#N)c4nc(C)cc(C)n4)n(B(c4ccccc4)c4ccccc4)c(-c4ccc(OCCCCCCCC)cc4)c3/c(=C(\C#N)c3nc(C)cc(C)n3)n2B(c2ccccc2)c2ccccc2)cc1 [Compound A-12] | B (70%: Minimum value of transmittance at wavelength of 500 to 600 nm<80%) | B (The solubility of the compound to PGMEA at 25 °C is 0.5 mass % to less than 2 mass %.)
B (10%<Transmittance at 785 nm≦25%) | 0.15 | 780 | 0.14 | 790 |  |  |  | COB(OC)n1c(-c2ccccc2-c2ccccc2)c2/c(=C(\C#N)c3nc4ccc(Cl)cc4o3)n(B(OC)OC)c(-c3ccccc3-c3ccccc3)c2/c1=C(\C#N)c1nc2ccc(Cl)cc2o1 [Compound D-5] | C (60%: Minimum value of transmittance at wavelength of 500 to 600 nm<70%) | 
D (40%<Transmittance at 785 nm) | 0.12 | 855 | 0.11 | 860 |  | 0.11 | 863 | CCCCCCCCOc1ccc(-c2c3/c(=C(\C#N)c4cc5cc(C(C)(C)C)ccc5cn4)n(B(c4ccccc4)c4ccccc4)c(-c4ccc(OCCCCCCCC)cc4)c3/c(=C(\C#N)c3cc4cc(C(C)(C)C)ccc4cn3)n2B(c2ccccc2)c2ccccc2)cc1 [Compound A-100] | B (70%: Minimum value of transmittance at wavelength of 500 to 600 nm<80%) | C (The solubility of the compound to PGMEA at 25 °C is less than 0.5 mass %.)
